Target: Cytomegalovirus protease/assemblin (Human cytomegalovirus)
Test: Potency against human cytomegalovirus protease in HCMV pNA assay

Compound	Ki [nM]
CC(C)c1ccc(NC(=O)N2CCC[C@H]2C(=O)N2CC[C@H]3[C@H]2[C@H](C)C(=O)N3c2nc3ccc(F)cc3s2)cc1 [(S)-2-[(3aS,6S,6aR)-4-(6-Fluoro-benzothiazol-2-yl)-6-methyl-5-oxo-hexahydro-pyrrolo[3,2-b]pyrrole-1-carbonyl]-pyrrolidine-1-carboxylic acid (4-isopropyl-phenyl)-amide]	17
COc1ccc2sc(N3C(=O)[C@@H](C)[C@@H]4[C@@H]3CCN4C(=O)[C@@H]3CCCN3C(=O)Nc3ccc(C(C)C)cc3)nc2c1 [(S)-2-[(3aS,6S,6aR)-4-(5-Methoxy-benzothiazol-2-yl)-6-methyl-5-oxo-hexahydro-pyrrolo[3,2-b]pyrrole-1-carbonyl]-pyrrolidine-1-carboxylic acid (4-isopropyl-phenyl)-amide]	22
CC(C)c1ccc(NC(=O)N2CCC[C@H]2C(=O)N2CC[C@H]3[C@H]2[C@H](C)C(=O)N3c2nc3cc(S(=O)(=O)C(F)F)ccc3s2)cc1 [(S)-2-{(3aS,6S,6aR)-4-[5-(Difluoro-methanesulfonyl)-benzothiazol-2-yl]-6-methyl-5-oxo-hexahydro-pyrrolo[3,2-b]pyrrole-1-carbonyl}-pyrrolidine-1-carboxylic acid (4-isopropyl-phenyl)-amide]	10
CC(C)c1ccc(NC(=O)N2CCC[C@H]2C(=O)N2CC[C@H]3[C@H]2[C@H](C)C(=O)N3c2nc3c(Cl)cccc3s2)cc1 [(S)-2-[(3aS,6S,6aR)-4-(4-Chloro-benzothiazol-2-yl)-6-methyl-5-oxo-hexahydro-pyrrolo[3,2-b]pyrrole-1-carbonyl]-pyrrolidine-1-carboxylic acid (4-isopropyl-phenyl)-amide]	41
